Measurements published in patent publication US8088757B2, “Betulinol derivatives as anti-cancer agents” (priority 2004, dated 2012).
Where two headings read alike, the source gives them in different places.

How the values were obtained:
[1] = Tolerability of solubilized drug in mice with prostate cancer cell xenografts; assay type: in vivo; details: 22% ethanol, 2×10^−3 mol per liter of betulonic acid
[2] = tested on: LNCaP; experiment: MTT cytotoxicity assay, LNCaP prostate cancer cells; assay type: cell-based, human
Experimental: The human prostate cancer LNCaP, PC-3, and DU-145 cell lines, as well as human fibroblast cell line, were obtained from the American Type Culture Collection (“ATCC”) and maintained in RPMI-1640, F-12k, and MEM mediums, respectively, supplemented with 10% FBS. Cell lines were maintained at 37° C. under a humidified atmosphere and 5% CO2 for testing of the cytotoxicity of betulinol derivatives. The cytotoxicity assay was performed using MTT assay according to the instructions of ATCC protocol. Cells 1×10^5 in 0.1 ml/well were plated in 96-well culture plates (Costar) and incubated with a different dilution of betulinol derivatives for 24, 48, and 72 hours. Ten μl of 3-[4,5-dimethylthiazol-2-yl]-2,5 diphenyl tetrazolium bromide was added into each well at the end of each incubation period. The reaction product, formazan, was dissolved in the detergent, and the absorbance was read at 540 nm (Ref).
(§1) However, these compounds were not tested on prostate cancer LNCaP cell line by NCI. […] The anti-tumor activity of the compounds was determined at three doses and the total growth inhibition kill effect as pertinent of the control at 24, 48, and 72 hours as presented in Table 11.

[3] = tested on: MCF7; experiment: In vitro cytotoxicity, Breast (2), MCF7; assay type: cell-based, human
[4] = tested on: SF-268; experiment: In vitro cytotoxicity, CNS (2), SF-268; assay type: cell-based, human
[5] = tested on: NCI-H460; experiment: In vitro cytotoxicity, Lung (2), NCI-H460; assay type: cell-based, human
Experimental: as §1

[6] = tested on: PC-3; experiment: In vitro cytotoxicity, Prostate (2), PC-3; assay type: cell-based, human
[7] = tested on: DU-145; experiment: In vitro cytotoxicity, Prostate (2), DU-145; assay type: cell-based, human
[8] = tested on: CAKI-1; experiment: In vitro cytotoxicity, Renal (2), CAKI-1; assay type: cell-based, human
Experimental: as §1

[9] = tested on: RXF 393; experiment: In vitro cytotoxicity, Renal (2), RXF 393; assay type: cell-based, human
[10] = tested on: TK-10; experiment: In vitro cytotoxicity, Renal (2), TK-10; assay type: cell-based, human
Experimental: as §1

[11] = tested on: T-47d; experiment: In vitro cytotoxicity, Breast (2), T-47d; assay type: cell-based, human
Experimental: as §1

[12] = tested on: OVCAR-5; experiment: In vitro cytotoxicity, Ovarian (2), OVCAR-5; assay type: cell-based, human
Experimental: as §1

[13] = tested on: OVACR-3; experiment: In vitro cytotoxicity, Ovarian (2), OVACR-3; assay type: cell-based, human
Experimental: as §1

[14] = tested on: U251; experiment: In vitro cytotoxicity, CNS (2), U251; assay type: cell-based, human
[15] = tested on: MALME-3M; experiment: In vitro cytotoxicity, Melanoma (2), MALME-3M; assay type: cell-based, human
[16] = tested on: HOP-92; experiment: In vitro cytotoxicity, Lung (2), HOP-92; assay type: cell-based, human
Experimental: as §1

[17] = tested on: NCI-H322M; experiment: In vitro cytotoxicity, Lung (2), NCI-H322M; assay type: cell-based, human
Experimental: as §1

[18] = tested on: 184B5/HER; experiment: In vitro cytotoxicity, Breast (1), 184B5/HER; assay type: cell-based; details: 1 × 10^−4 M
[19] = Homo sapiens, 24 hours, 2.5 × 10^−5 M, read-out: Growth Inhibition %
[20] = Homo sapiens, 24 hours, 2.5 × 10^−6 M, read-out: Growth Inhibition %
[21] = Homo sapiens, 24 hours, 2.5 × 10^−7 M, read-out: Growth Inhibition %
[22] = Homo sapiens, 48 hours, 2.5 × 10^−5 M, read-out: Growth Inhibition %
[23] = Homo sapiens, 48 hours, 2.5 × 10^−6 M, read-out: Growth Inhibition %
[24] = Homo sapiens, 48 hours, 2.5 × 10^−7 M, read-out: Growth Inhibition %

In the case of `C=C(C)C1CCC2(C(=O)NCCCCC(NC(=O)OC(C)(C)C)C(=O)O)CC[C@]3(C)[C@H](CC[C@@H]4[C@@]5(C)CCC(=O)C(C)(C)[C@@H]5CC[C@]43C)C12` (stereo partly drawn) [Boc-Monomer], the tolerability [1] is reported as “well tolerated”.
Work on `C=C(C)C1CCC2(CO)CC[C@]3(C)[C@H](CC[C@@H]4[C@@]5(C)CCC(O)C(C)(C)[C@@H]5CC[C@]43C)C12` (stereo partly drawn) [Compound 1, Betulinol] yielded an inhibition at 25 µM [2, 19] of 47.2%, an inhibition at 2.5 µM [2, 20] of 11.9% and an inhibition at 0.25 µM [2, 21] of 8.24%. For the same molecule, the inhibition at 25 µM [2, 22] was 31%, the inhibition at 2.5 µM [2, 23] was 13.8% and the inhibition at 0.25 µM [2, 24] was 10.6%.
For `C=C(C)[C@@H]1CC[C@]2(C(=O)O)CC[C@]3(C)[C@H](CC[C@@H]4[C@@]5(C)CC[C@H](O)C(C)(C)[C@@H]5CC[C@]43C)[C@@H]12` [Compound 2, Betulinic Acid], the “Growth Inhibition %” value ([2]; 24 hours, 2.5 × 10^−5 M) was 41.0%.
For `C=C(C)[C@@H]1CC[C@]2(C=O)CC[C@]3(C)[C@H](CC[C@@H]4[C@@]5(C)CC[C@H](O)C(C)(C)[C@@H]5CC[C@]43C)[C@@H]12` [Compound 3, Betulin Aldehyde], the “Growth Inhibition %” value ([2]; 24 hours, 2.5 × 10^−6 M) was 11.0%.
For `C=C(C)C1CCC2(C=O)CCC3(C)C(CCC4C5(C)CCC(=O)C(C)(C)C5CCC43C)C12` (stereo not drawn) [Compound 5, Betulon Aldehyde], the inhibition at 25 µM [2, 19] was 19%, the inhibition at 2.5 µM [2, 20] was 21.9% and the inhibition at 0.25 µM [2, 21] was 6.34%. It also gave an inhibition at 25 µM [2, 22] of 40.2%, an inhibition at 2.5 µM [2, 23] of 47.4% and an inhibition at 0.25 µM [2, 24] of 29.8%. The “Percent Killed” value ([3]; MCF7, 1 × 10^−4 M) was 68%, the “Percent Killed” value ([4]; SF-268, 1 × 10^−4 M) was 27% and the “Percent Killed” value ([5]; NCI-H460, 1 × 10^−4 M) was 89%.
With `C=C(C)[C@@H]1CC[C@]2(COC(C)=O)CC[C@]3(C)[C@H](CC[C@@H]4[C@@]5(C)CC[C@H](OC(C)=O)C(C)(C)[C@@H]5CC[C@]43C)[C@@H]12` [Compound 6, Betulin Diacetate] the inhibition at 25 µM [2, 19] was 17%, the inhibition at 2.5 µM [2, 20] was 18.7% and the inhibition at 0.25 µM [2, 21] was 0%. For the same molecule, the inhibition at 25 µM [2, 22] was 56.6%, the inhibition at 2.5 µM [2, 23] was 46.7% and the inhibition at 0.25 µM [2, 24] was 27.9%. The “Percent Killed” value ([6]; PC-3, 1 × 10^−4 M) was 25%, the “Percent Killed” value ([6]; PC-3, 1 × 10^−5 M) was 15% and the “Percent Killed” value ([7]; DU-145, 1 × 10^−4 M) was 100%. The “Percent Killed” value ([7]; DU-145, 1 × 10^−5 M) was 100%, the “Percent Killed” value ([7]; DU-145, 1 × 10^−6 M) was 100% and the “Percent Killed” value ([7]; DU-145, 1 × 10^−7 M) was 100%. For the same molecule, the “Percent Killed” value ([7]; DU-145, 1 × 10^−8 M) was 27%, the “Percent Killed” value ([8]; CAKI-1, 1 × 10^−4 M) was 100% and the “Percent Killed” value ([8]; CAKI-1, 1 × 10^−5 M) was 100%. The “Percent Killed” value ([8]; CAKI-1, 1 × 10^−6 M) was 100%, the “Percent Killed” value ([9]; RXF 393, 1 × 10^−4 M) was 100% and the “Percent Killed” value ([9]; RXF 393, 1 × 10^−5 M) was 100%. For the same molecule, the “Percent Killed” value ([9]; RXF 393, 1 × 10^−6 M) was 100%, the “Percent Killed” value ([9]; RXF 393, 1 × 10^−7 M) was 97% and the “Percent Killed” value ([9]; RXF 393, 1 × 10^−8 M) was 15%. For the same molecule, the “Percent Killed” value ([10]; TK-10, 1 × 10^−4 M) was 100%, the “Percent Killed” value ([10]; TK-10, 1 × 10^−5 M) was 100% and the “Percent Killed” value ([10]; TK-10, 1 × 10^−6 M) was 49%. For the same molecule, the “Percent Killed” value ([3]; MCF7, 1 × 10^−4 M) was 100%, the “Percent Killed” value ([3]; MCF7, 1 × 10^−5 M) was 100% and the “Percent Killed” value ([3]; MCF7, 1 × 10^−6 M) was 100%. For the same molecule, the “Percent Killed” value ([3]; MCF7, 1 × 10^−7 M) was 100%, the “Percent Killed” value ([11]; 1 × 10^−4 M) was 100% and the “Percent Killed” value ([11]; 1 × 10^−5 M) was 100%. The “Percent Killed” value ([11]; 1 × 10^−6 M) was 100%, the “Percent Killed” value ([11]; 1 × 10^−7 M) was 23% and the “Percent Killed” value ([12]; OVCAR-5, 1 × 10^−4 M) was 100%. The “Percent Killed” value ([12]; OVCAR-5, 1 × 10^−5 M) was 100%, the “Percent Killed” value ([12]; OVCAR-5, 1 × 10^−6 M) was 100% and the “Percent Killed” value ([13]; OVACR-3, 1 × 10^−4 M) was 100%. For the same molecule, the “Percent Killed” value ([13]; OVACR-3, 1 × 10^−5 M) was 100%, the “Percent Killed” value ([13]; OVACR-3, 1 × 10^−6 M) was 96% and the “Percent Killed” value ([14]; U251, 1 × 10^−4 M) was 100%. For the same molecule, the “Percent Killed” value ([14]; U251, 1 × 10^−5 M) was 100%, the “Percent Killed” value ([14]; U251, 1 × 10^−6 M) was 100% and the “Percent Killed” value ([14]; U251, 1 × 10^−7 M) was 100%. For the same molecule, the “Percent Killed” value ([4]; SF-268, 1 × 10^−4 M) was 100%, the “Percent Killed” value ([4]; SF-268, 1 × 10^−5 M) was 100% and the “Percent Killed” value ([4]; SF-268, 1 × 10^−6 M) was 100%. For the same molecule, the “Percent Killed” value ([4]; SF-268, 1 × 10^−7 M) was 75%, the “Percent Killed” value ([4]; SF-268, 1 × 10^−8 M) was 15% and the “Percent Killed” value ([15]; 1 × 10^−4 M) was 100%. The “Percent Killed” value ([15]; 1 × 10^−5 M) was 100%, the “Percent Killed” value ([15]; 1 × 10^−6 M) was 100% and the “Percent Killed” value ([15]; 1 × 10^−7 M) was 100%. The “Percent Killed” value ([15]; 1 × 10^−8 M) was 98%, the “Percent Killed” value ([16]; HOP-92, 1 × 10^−4 M) was 100% and the “Percent Killed” value ([16]; HOP-92, 1 × 10^−5 M) was 100%. For the same molecule, the “Percent Killed” value ([16]; HOP-92, 1 × 10^−6 M) was 100%, the “Percent Killed” value ([5]; NCI-H460, 1 × 10^−4 M) was 100% and the “Percent Killed” value ([5]; NCI-H460, 1 × 10^−5 M) was 100%. The “Percent Killed” value ([5]; NCI-H460, 1 × 10^−6 M) was 100%, the “Percent Killed” value ([5]; NCI-H460, 1 × 10^−7 M) was 25% and the “Percent Killed” value ([17]; 1 × 10^−4 M) was 100%. The “Percent Killed” value ([17]; 1 × 10^−5 M) was 100% and the “Percent Killed” value ([17]; 1 × 10^−6 M) was 100%.
`C=C(C)C1CCC2(COC)CCC3(C)C(CCC4C5(C)CCC(OC)C(C)(C)C5CCC43C)C12` (stereo not drawn) [Compound 7, Betulin Dimethyl ether (Cornelon)] showed an inhibition at 25 µM [2, 19] of 45%, an inhibition at 2.5 µM [2, 20] of 18.1% and an inhibition at 0.25 µM [2, 21] of 7.76%. The inhibition at 25 µM [2, 22] was 50.9%, the inhibition at 2.5 µM [2, 23] was 44% and the inhibition at 0.25 µM [2, 24] was 27.9%. The “Percent Killed” value ([3]; MCF7, 1 × 10^−4 M) was 97%, the “Percent Killed” value [18] was “Toxic” and the “Percent Killed” value ([4]; SF-268, 1 × 10^−4 M) was 100%. For the same molecule, the “Percent Killed” value ([5]; NCI-H460, 1 × 10^−4 M) was 80%.
In the case of `C=C(C)[C@@H]1CC[C@]2(CO)CC[C@]3(C)[C@H](CC[C@@H]4[C@@]5(C)CC[C@H](OC(C)=O)C(C)(C)[C@@H]5CC[C@]43C)[C@@H]12` [Compound 8, 3-Acetoxy Betulin], the “Growth Inhibition %” value ([2]; 24 hours, 2.5 × 10^−7 M) is reported as 0%.
In the case of `C=C(C)C1CCC2(C(=O)NCCCCC(NC(=O)OC(C)(C)C)C(=O)OC)CC[C@]3(C)[C@H](CC[C@@H]4[C@@]5(C)CCC(=O)C(C)(C)[C@@H]5CC[C@]43C)C12` (stereo partly drawn) [Monomer], the cells killed ([2]; 1×10^−4 M) is reported as about 80% and the inhibition at 100 µM ([2]; Homo sapiens, 48 hours, 1 × 10^−4 M, read-out: Growth Inhibition %) is reported as 82.8 ± 14.3%.
